Results on 22 molecules are retold here after US7282507B2, “Indole derivatives as selective androgen receptor modulators (SARMS)” (Janssen Pharmaceutica N.V., priority 2004, dated 2007).

In experiment [1] the target is T1, androgen receptor (rat ventral prostate cytosol) (Rattus norvegicus, UniProt P15207).
T1 construct: from tissue; host or cells: ventral prostate cytosol of castrated male Sprague Dawley or Wistar rats
T1 sequence (P15207 1-902): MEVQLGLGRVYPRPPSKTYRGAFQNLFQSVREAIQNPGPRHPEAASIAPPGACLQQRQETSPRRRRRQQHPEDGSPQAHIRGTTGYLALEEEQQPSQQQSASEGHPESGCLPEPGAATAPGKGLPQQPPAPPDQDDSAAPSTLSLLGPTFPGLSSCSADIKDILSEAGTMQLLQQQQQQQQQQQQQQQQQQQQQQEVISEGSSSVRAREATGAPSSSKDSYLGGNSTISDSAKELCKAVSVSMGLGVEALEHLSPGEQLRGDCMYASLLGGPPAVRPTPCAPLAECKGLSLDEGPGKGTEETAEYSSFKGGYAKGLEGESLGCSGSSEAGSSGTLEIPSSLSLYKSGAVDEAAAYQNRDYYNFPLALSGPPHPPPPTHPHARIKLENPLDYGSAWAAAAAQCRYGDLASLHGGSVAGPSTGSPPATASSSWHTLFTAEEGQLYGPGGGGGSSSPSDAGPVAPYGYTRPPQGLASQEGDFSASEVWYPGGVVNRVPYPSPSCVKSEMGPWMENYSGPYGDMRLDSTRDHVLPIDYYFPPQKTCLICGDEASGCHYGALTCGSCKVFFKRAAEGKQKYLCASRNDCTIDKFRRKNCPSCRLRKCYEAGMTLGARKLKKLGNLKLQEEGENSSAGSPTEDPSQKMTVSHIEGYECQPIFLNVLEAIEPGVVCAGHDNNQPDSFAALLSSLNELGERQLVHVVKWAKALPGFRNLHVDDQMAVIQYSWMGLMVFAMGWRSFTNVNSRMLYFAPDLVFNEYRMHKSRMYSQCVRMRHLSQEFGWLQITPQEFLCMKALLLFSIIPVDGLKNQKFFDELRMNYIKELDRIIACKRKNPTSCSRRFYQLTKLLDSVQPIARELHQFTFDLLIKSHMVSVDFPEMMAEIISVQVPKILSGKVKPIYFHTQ
Kind of experiment: Androgen Receptor Binding Using Rat Ventral Prostate Cytosol. As to conditions: for IC50: read-out: IC50 (nM), Androgen Receptor Binding (Rat Cytosol); for inhibition at 1 µM: read-out: % Inhibition, Androgen Receptor Binding (Rat Cytosol). How it is done:
The assay was run on a 96 well plate with each well filled with a total reaction volume 150 μL, of a solution containing 5 pmol androgen receptor LBD (Panvera) or 30 μL of freshly prepared rat cytosol, 0.5 nM [^3H] […] (TED buffer contains 10 mM Tris.HCl pH 7.4, 1 mM sodium molybdate, 1.5 mM EDTA, 1 mM DTT and 10% (v/v) glycerol.)
On day one, the solution containing receptor, tracer and TED buffer was distributed into a 96 well plate. Diluted test compound or control vehicle was then added to individual wells and the plate incubated at 4° C. overnight.
On day two, to each well was then added 20 μL human γ-globulin (ICN 823102), prepared at 25 mg/ml in TE pH 8.0, and 55 μL 40% polyethylene glycol 8000 (J T Baker U222-08), prepared in TE pH 8.0. The plate was incubated at 4° C. for 60 minutes. During incubation, the harvester was rinsed with 10% PEG 8000, prepared in TE pH 8.0, and a GF/C Unifilter-96 was pre-wet with 10% PEG. The binding reaction was filtered, the retentate was washed three times with 10% PEG and dried under vacuum for a couple of minutes, then dried at 50° C. for 5 min and the plate was bottom sealed. Next, 25 μL of Microscint-20 (Packard) was added to the filter wells and the plate was top sealed. The plate wells were then counted on a TopCount (Packard).
Rat Prostate Cytosol Preparation:
Male Sprague Dawley or Wistar rats (Charles River, 200-300 g) were used for each preparation. The day before preparing the cytosol, the rats were castrated using standard surgical procedures.
The rats were euthanized by carbon dioxide asphyxiation. The rat prostates were quickly removed and placed on ice in pre-chilled, pre-weighed 50 mL plastic tubes. No more than five prostates were placed into one tube. The tubes were then weighed and the prostate tissue wet weights calculated.
To the chilled prostate tissue was then added […] of chilled homogenization buffer. The homogenization buffer was freshly prepared by mixing 10 mM Tris.HCl, pH 7.4, 1 mM sodium molybdate, 1.5 mM EDTA, 1 mM dithiothreitol, 10% (v/v) glycerol and 1% protease inhibitor cocktail (Sigma P 8340).
The prostate tissue was homogenized in a cold room using a pre-chilled Polytron PT3000 homogenizer (Brinkmann). Homogenization was performed at a speed setting of 20, three times for 10 sec bursts. The tubes containing the prostate tissue was kept on ice while homogenizing. The homogenate was allowed to rest on ice for 20 sec between bursts.
The homogenate was then placed into pre-chilled 3 mL polycarbonate ultracentrifuge tubes and centrifuged in the TLA-100 rotor of a TL-100 ultracentrifuge for 12 min at 100,000 rpm at 4° C. The resulting supernatant was stored in 1 mL aliquots at −80° C. until needed.
Binding to the androgen receptor was determined according to the protocol described in Example 86 using the above prepared rat cytosol.
% Inhibition was determined by testing dilutions of the test compound (usually duplicates of 10 μM) in the binding assay. Counts per well were measured and percents of inhibition determined. […] Counts per well were measured and IC50s determined by linear regression.

In experiment [2] the target is T2, androgen receptor (AdEasy+rAR, L929 cells) (Rattus norvegicus, UniProt P15207).
T2 construct: expressed in transfected cells; host or cells: L929 cells transduced with adenovirus AdEasy+rAR
T2 sequence (P15207 1-902): T1 sequence (P15207 1-902)
As to the kind of experiment: L929 Androgen Receptor Functional Assay, Adenovirus Transduction. The class given is cell-based. As to conditions: agonist testing, 3000 nM. The method, then:
L929 cells were plated in 96-well plates at 20,000 cells per well, in DMEM/F12 (GIBCO) containing 10% (v/v) charcoal-treated fetal bovine serum (Hyclone) and lacking phenol red. The plates were then incubated overnight at 37° C. in 5% (v/v) humidified CO2.
Test compound dilutions were prepared in 100% (v/v) DMSO, if necessary. Each dilution was made to 1250× the final desired assay concentration.
First, 2 mL of DMEM/F12 lacking phenol red was pipetted into the wells of a 2-mL 96-well assay block. Next, 4 μL of the 1250× test compound dilutions were pipetted into each well of the assay block. The mixtures within the well were then carefully mixed by pipette.
In a 15 mL or 50 mL sterile centrifuge tube, a 2.5 nM (2.5×) dilution of R1881 (methyl-trienolone) in DMEM/F12 lacking phenol red was prepared.
In a second 15 mL or 50 mL centrifuge tube a solution containing an equal volume of DMEM to the first and an equal volume of 100% (v/v) DMSO to the volume of R1881 used in the first tube was prepared.
In a 15 mL or 50 mL sterile centrifuge tube, a dilution in DMEM/F12 of the adenovirus AdEasy+rAR at an moi of 1:500 per well was prepared.
The medium was removed from the 96-well plates by inversion and dried, inverted, very briefly. As soon as possible after medium removal, 40 μL of the diluted unlabeled test compound was added to each well, in duplicate. To each well designated for antagonist testing was added 40 μL of the 2.5 nM R1881 dilution to the wells for antagonist testing. To each well designated for agonist testing was added 40 μL of the DMSO dilution. Then 20 μL of the diluted adenovirus were added to all wells. The plates were incubated for 48 hours at 37° C. in 5% (v/v) humidified CO2.
To each well was added 100 μL of Steady-Glo luciferase assay substrate (Promega) and the plates were placed on a rotary shaker for 1 min. The plates were then incubated at room temperature in the dark for one hour. The contents of each well were then transferred to a white microtiter plate (Packard) and read on a Luminoskan Ascent (Thermo Lab Systems).
L929 AR percent activity was determined by testing dilutions of the test compound using a concentration of 3000 nM unless otherwise noted. L929 percent inhibition was determined by testing dilutions of the test compound using a concentration of 3000 nM. […] Luciferase activity per well were measured and EC50s and IC50s determined by linear regression.

What is called IC50 is the midpoint of a concentration-inhibition curve. Broadly, the inhibition is the change of the read-out against control, counted positive when it falls.

Each structure is given as a SMILES string.

For the molecule `COc1cccc(CN2CCC(O)(c3cc4cc([N+](=O)[O-])c(C(F)(F)F)cc4[nH]3)CC2)c1` [Compound 38], the “% Inhibition, Androgen Receptor Binding (Rat Cytosol)” value (“% Inhibition” for short) in experiment [1] (Concentration 1000 nM, 1 µM) is recorded as 16%. Moreover, the IC50 in experiment [1] came out at 8800 nM. For `COc1cccc(CN2CCC(O)(c3cc4cc([N+](=O)[O-])c(C(F)(F)F)cc4[nH]3)CC2)c1` [Compound 39] the same measures were 6% and more than 6100 nM. As to `OC1(c2cc3cc(Cl)c(C(F)(F)F)cc3[nH]2)CCN(Cc2ccc(Cl)cc2)CC1` [Compound 31], the “% Inhibition” value in experiment [1] (Concentration 1000 nM) was determined as 20%. In experiment [1], the IC50 amounted to 4050 nM. For `CC(O)(Sc1ccc(N)cc1)c1cc2cc(Cl)c(C(F)(F)F)cc2[nH]1` (racemic) [Compound 265], the “% Inhibition” value in experiment [1] (Concentration 3000 nM) is given as 93.5%. Also, the “% Activity, L929 androgen receptor functional assay” value in experiment [2] was −1%. Consider `COc1cccc(CN2CCC(O)(c3cc4cc(Cl)c(C(F)(F)F)cc4[nH]3)CC2)c1` [Compound 29], for which, in experiment [1] (Concentration 1000 nM), the “% Inhibition” value was −1.8%. Also, in experiment [1], the IC50 stood at 4700 nM. For `OC1(c2cc3cc(Cl)c(C(F)(F)F)cc3[nH]2)CCN(Cc2ccc(C(F)(F)F)cc2)CC1` [Compound 33], in that order: 11% and 29000 nM. With `CC(O)(CS(=O)(=O)c1ccc(F)cc1)c1cc2cc(C#N)c(C(F)(F)F)cc2[nH]1` (stereo not shown) [Compound 110], in experiment [1] (Concentration 1000 nM), the inhibition at 1 µM turned out to be 58.5%. On to `O=[N+]([O-])c1cc2cc(C3(O)CCN(Cc4ccc(Cl)cc4)CC3)[nH]c2cc1C(F)(F)F` [Compound 40], for which the “% Inhibition” value in experiment [1] (Concentration 1000 nM, 1 µM) was −2.5%. Moreover, the IC50 in experiment [1] was 3800 nM. `O=[N+]([O-])c1cc2cc(C3(O)CCN(Cc4ccc(F)cc4)CC3)[nH]c2cc1C(F)(F)F` [Compound 37]: the inhibition at 1 µM in experiment [1] (Concentration 1000 nM) turned out to be 25%. For the same molecule, the half-inhibitory concentration (IC50) in experiment [1] came out at 3600 nM. For the molecule `OC1(c2cc3cc(Cl)c(C(F)(F)F)cc3[nH]2)CCN(Cc2ccc(Cl)c(Cl)c2)CC1` [Compound 36], the “% Inhibition” value in experiment [1] (Concentration 1000 nM) is −34%. For the same molecule, the IC50 in experiment [1] is more than 100000 nM. Consider `CC(O)(c1cc2cc([N+](=O)[O-])c(C(F)(F)F)cc2[nH]1)S(=O)(=O)c1ccc(Cl)c(Cl)c1` (racemic) [Compound 255], for which the “% Inhibition” value in experiment [1] (Concentration 1000 nM) is recorded as 26%. As for `CS(=O)(=O)c1ccc(CN2CCC(O)(c3cc4cc(Cl)c(C(F)(F)F)cc4[nH]3)CC2)cc1` [Compound 34], the “% Inhibition” value in experiment [1] (Concentration 1000 nM) worked out at 18%. The IC50 in experiment [1] turned out to be 5700 nM. For `Cc1ccc(CN2CCC(O)(c3cc4cc(Cl)c(C(F)(F)F)cc4[nH]3)CC2)cc1` [Compound 30], in that order: −7.7% and 4100 nM. As to `CS(=O)(=O)n1c(C2(O)CCN(C(=O)c3ccc(Cl)cc3)CC2)cc2cc(Cl)c(C(F)(F)F)cc21` [Compound 24], the “% Inhibition” value in experiment [1] (Concentration 1000 nM) is 2%. As for `O=[N+]([O-])c1cc2cc(C3(O)CCN(Cc4ccc(Cl)c(Cl)c4)CC3)[nH]c2cc1C(F)(F)F` [Compound 43], the “% Inhibition” value in experiment [1] (Concentration 1000 nM) is 5.8%. The IC50 in experiment [1] came out at 9100 nM. For the molecule `Cc1ccc(CN2CCC(O)(c3cc4cc([N+](=O)[O-])c(C(F)(F)F)cc4[nH]3)CC2)cc1` [Compound 27], in experiment [1], the IC50 was 3100 nM. On to `CC(O)(C[S+]([O-])c1ccccc1)c1cc2cc(Cl)c(C(F)(F)F)cc2[nH]1` (stereo not shown) [Compound 115], for which the “% Inhibition” value in experiment [1] (Concentration 1000 nM, 1 µM) is 54.5%. For the same molecule, the IC50 in experiment [1] was 1300 nM. For the molecule `OC1(c2cc3cc(Cl)c(C(F)(F)F)cc3[nH]2)CCN(Cc2ccc(F)cc2)CC1` [Compound 28], the “% Inhibition” value in experiment [1] (Concentration 1000 nM) was −3.4%. In addition, the IC50 in experiment [1] stood at 7000 nM. For `COc1ccc(CN2CCC(O)(c3cc4cc(Cl)c(C(F)(F)F)cc4[nH]3)CC2)cc1` [Compound 35], in that order: −19% and 4200 nM.

As to `CC(C)(C)c1ccc(CN2CCC(O)(c3cc4cc(Cl)c(C(F)(F)F)cc4[nH]3)CC2)cc1` [Compound 32], the “% Inhibition” value in experiment [1] (Concentration 1000 nM) came to 34%. For the same molecule, the IC50 in experiment [1] was determined as 43000 nM.

Consider `Cc1ccc(CN2CCC(O)(c3cc4cc([N+](=O)[O-])c(C(F)(F)F)cc4[nH]3)CC2)cc1` [Compound 42], for which the inhibition at 1 µM in experiment [1] (Concentration 1000 nM) is 23%. Besides, the IC50 in experiment [1] was 7100 nM. For the molecule `O=[N+]([O-])c1cc2cc(C3(O)CCN(Cc4ccc(Cl)cc4)CC3)[nH]c2cc1C(F)(F)F` [Compound 41], the “% Inhibition” value in experiment [1] (Concentration 1000 nM, 1 µM) stood at 20%. Further, the concentration for half-maximal inhibition (IC50) in experiment [1] amounted to 2300 nM.
